Source: US8357379B2, “High concentration baclofen preparations” (Board of Regents, The University of Texas System, priority 2004, dated 2013)
Values after ≈ are worked out from the molar mass of the structure shown. Marks after values point to notes of the source that are not given here.

Tests used:
[1] = 20° C.; cited from earlier work
[2] = Practical solubility by direct dissolution in normal saline, HPLC after 0.22-micron filtration; type: physicochemical; details: about 23° C.
Experimental: The inventors attempted to prepare aqueous baclofen solutions at concentrations of 3 mg/mL, 4 mg/mL, and 5 mg/mL by direct dissolution in 0.9% sodium chloride injection, USP (normal saline). The normal saline was commercially procured by the inventors and was at ambient room temperature (about 23° C.) for use in the testing. Appropriate amounts of authentic baclofen powder were weighed and added to the normal saline and shaken to aid in dissolution. […] Both the 4-mg/mL and especially the 5-mg/mL concentration retained large amounts of undissolved powder. […] The solutions were visibly unacceptable for use as an injection. […] The inventors believe that this the concentration represents the “practical solubility” of baclofen.
As used herein, the “practical solubility” is the concentration of baclofen that can be dissolved using simple practical dissolution steps such as adding the powder to an aqueous solvent and then shaking or stirring the solvent by hand or with a mechanical device. When attempting to prepare solutions having concentrations higher than the practical solubility concentration, it is common to observe residual undissolved matter, precipitation of microparticulates, or both.

[3] = Stability-indicating HPLC analysis of baclofen concentration / chemical stability; type: physicochemical; details: for Chemical Stability (% Remaining): room temperature
Experimental: The test solutions in vials and syringes are thoroughly mixed prior to sampling. A 1-mL sample of each test solution from three test syringes and three test vials is collected and chemically analyzed. […] Triplicate HPLC determinations are performed at each time point if needed to determine the maximum stability of baclofen. The contents of the remaining containers are visually inspected at each assay time point and 6-mL samples are collected and fully evaluated for physical stability as indicated under Physical Stability Evaluation above after 1, 3, 7, 14, 21, 30 and 60 days.
HPLC Analysis to Confirm Baclofen Concentration. A stability-indicating HPLC analytical method adapted from published methods was used to determine the concentration of the baclofen samples evaluated in this testing (Sitaram et al., 1997; Gupta et al., 1998; Johnson C E, et al., 1993; Allen L V, et al., 1996. This method was used to document that at the higher concentrations the entire amount of baclofen had dissolved, and the solutions were near the target concentrations. All tested sample solutions were filtered through 0.22-micron filters to remove remaining undissolved drug, if any, prior to analysis. The HPLC analytical method used is cited in Tables 1 and 2. […] Initial baclofen concentrations for the nominally 4, 5, 6, and 8 mg/mL test solutions were within 93 to 104% of the target concentrations.
The liquid chromatograph is a Waters LC Module-1 Plus having a multisolvent pump, variable wavelength UV detector, and autosampler in one unit. The system is also controlled and integrated by a personal computer running chromatography management software.

[4] = aqueous solution, room temperature, neutral pH (pH 6 to 7); calculated (Ahuja, 1985); cited from earlier work
[5] = intrathecal injection at effective CSF concentrations vs oral administration; cited from earlier work

solubility at 1 week ([2]; 0.9% sodium chloride injection, USP (normal saline), saline or isotonic, thermodynamic from solid, normal saline, putative 4 mg/mL and 5 mg/mL samples, shaking one week, filtered 0.22-micron, HPLC, read-out: amount of baclofen actually dissolved (practical solubility)): 3300 to 3500 µg/mL (≈ 15.4 to 16.4 mM)
complete dissolution by direct dissolution ([2]; 4-mg/mL and 5-mg/mL in normal saline, vigorous shaking 60 minutes, then automated shaking for one week): failed to result in complete dissolution
Chemical Stability (% Remaining) ([3]; 3 mg/ml, 24 months, calculated based on concentrations measured at six months): 101.7 ± 1.0^a % Remaining
Chemical Stability (% Remaining) ([3]; 3.5 mg/ml, 24 months, calculated based on concentrations measured at six months): 100.0 ± 0.4^a % Remaining
loss of drug during storage ([3]; 4 mg/mL, Examples 1 and 2, at least one year at 23° C.): no loss of drug
Chemical Stability (% Remaining) ([3]; 4 mg/ml, 12 months): 99.9 ± 0.5 % Remaining
Chemical Stability (% Remaining) ([3]; 4 mg/ml, 24 months, calculated based on concentrations measured at six months): 99.5 ± 1.2^a % Remaining
Chemical Stability (% Remaining) ([3]; 5 mg/ml, 12 months): 100.6 ± 0.5 % Remaining
Chemical Stability (% Remaining) ([3]; 6 mg/ml, 12 months): 102.9 ± 1.0 % Remaining
initial baclofen concentration relative to target concentration ([3]; nominally 4, 5, 6, and 8 mg/mL test solutions, filtered 0.22-micron, HPLC): 93 to 104%
SMILES: NCC(CC(=O)O)c1ccc(Cl)cc1 (centres unmarked) [Baclofen, 4-amino-3-(p-chlorophenyl) butyric acid]
pKa1 [1]: 3.8±0.1
pKa2 [1]: 9.62±0.1
time before there is 10% decomposition of the dissolved baclofen [4]: 10 years
plasma concentrations with intrathecal injection relative to oral administration [5]: 100 times less
